# Experiments:
# HBV [1] = assay: Inhibitory effect on HBV infection in infection model HepG2-hNTCP 2B1 (drug before infection); type: cell-based, hepatitis B virus; conditions: 1, 5, 25 μM, drug from 24 h before infection to day 8, compared with blank group
# Text: The human sodium-taurocholate cotransporting polypeptide (hNTCP) gene and the red fluorescent protein (mCherry) gene were constructed in a bicistronic expression cassette regulated by tetracycline-inducible promoter, the expression cassette was stably integrated into HepG2-Tet On cells by using a lentiviral system, a stable cell line HepG2-hNTCP 2B1 with high expression of hNTCP was obtained by using flow cytometry sorting technology, and this cell model supported HBV infection and generated HBV-related indicators. (For the construction method of this cell model, please refer to: Ya-Li Zhang, Ying Gao, Jia-Li Cao, Jing-Hua Zhao, Tian-Ying Zhang, ChuanLai Yang, Hua-Long Xiong, Ying-Bin Wang, Shan-Hai Ou, Tong Cheng, Chang-Rong Chen, Quan Yuan & Ning-Shao Xia (2019), Robust in vitro assay for analyzing the neutralization activity of serum specimens against hepatitis B virus, Emerging Microbes & Infections, 8:1, 724-733, DOI: 10.1080/22221751.2019.1619485).
# This experiment was carried out in a 24-well culture plate.
# About 1.5×10^5 HepG2-hNTCP 2B1 cells were plated in each well, and 500 μL of medium B was added. After the cells adhered, medium A was used for replacement to perform the induction with Doxycycline during the whole experiment.
# After 72 hours of the induction with Doxycycline, 500 μL of drug-containing medium A was added to each well to perform drug treatment for 24 h, and then the cells were infected with HBV, the virus amount for infection per well was 100 MOI. Before infection, HBV solution was obtained by diluting HBV in medium C, and the infection volume was 250 μL per well. […]
# HBsAg (chemiluminescence enzyme immunoassay (CLEIA), product standard number: YZB/Guo 0346-2014) and HBeAg (enzyme-linked immunosorbent assay (ELISA), product standard number: YZB/Guo 0216-2013) were detected using the Beijing Wantai Company's detection kits, and the specifical detection operations were carried out according to the detection methods described in the instructions in the kits.
# After the collected cells were washed with PBS, automated extraction was performed on a nucleic acid extraction workstation (purchased from GenMagBio, model: DOF-9696) using a viral DNA & RNA extraction kit (Beijing GenMagBio) (for the extraction procedure, please refer to the instrument manual) to obtain HBV DNA. The HBV DNA was quantified by probe real-time fluorescent quantitative PCR, in which the reagent used was Premix Ex Taq™ (Takara), the instrument used was Roche's LightCycler® 96, the primer sequences used for fluorescence quantification were shown in Table 1, and the fluorescence quantitative reaction system was shown in Table 2. […]
# HBV [2] = assay: HBcAg immunofluorescence detection in infected HepG2-hNTCP 2B1; type: cell-based, hepatitis B virus; conditions: HepG2-hNTCP 2B1 cells after infection; 5 μM, day 6 to day 12
# Method: Southern blot experiment was carried out on a 10 cm^2 culture plate. About 5×10^6 HepG2-hNTCP 2B1 cells were plated in each 10 cm^2 culture plate, and medium B was added. After the cells adhered, medium A was used for replacement to perform the induction with Doxycycline during the whole experiment. HBV infection was performed 4 days after the induction with Doxycycline, and the amount of HBV for infection was 1000 MOI. Before infection, HBV was diluted in medium C to obtain HBV solution, and the infection volume was 5 mL. During infection, the cell supernatant was first removed by suction, the HBV solution was added to the cells, the cells were incubated for 24 hours, then the supernatant was collected as the sample of Day 0. Then the cells were washed three times with PBS, and fresh medium A was used for replacement. After that, the supernatant was collected every two days for detection, fresh medium A was used for replacement. […]
# The HBcAg immunofluorescence staining involved in this experiment was performed directly on adherent cells. […] Photographing: Photographing was performed with a high-content confocal microscope (PerkinElmer, Operetta CLS), and the mean fluorescence intensity of green fluorescence was analyzed.
# [3] = p<0.05, dose-dependent in some extent
smiles,measurement,setting,value
CC1(C)CCC(C)(C)c2cc(Cn3cccn3)c(/C=C/c3ccc(C(=O)O)cc3)cc21 [Palovarotene],level of HBV cccDNA,"HBV [1]; p<0.0001, dose-dependent in some extent",effectively inhibit
same,level of intracellular HBV DNA,"HBV [1]; p<0.001, dose-dependent in some extent",effectively inhibit
same,level of HBeAg in the cell supernatant,HBV [1]; [3],effectively inhibit
same,level of HBsAg in the cell supernatant,HBV [1]; [3],effectively inhibit
same,positive rate of HBcAg (immunofluorescence),HBV [2],significantly reduce the positive rate
